Assay results from ChEMBL document CHEMBL1201862, “PubChem BioAssay data set” (2004).
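These data come from cells grown in 96-well plates and exposed to compound for 48 hours at five concentrations. At the GI50, growth is halved.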 Activity calls are given as the source filed them. No stated cut-off is given here; in the data, active = GI50 up to about 1.1 µM and inactive = higher.

Experiments:
Experiment in all cases: growth of human tumour cells (NCI), 48 h
A498 = tested on: A498
CCRF-CEM = tested on: CCRF-CEM
HL-60 = tested on: HL-60
HOP-62 = tested on: HOP-62
Hs-578T = tested on: Hs-578T
IGROV-1 = tested on: IGROV-1
MDA-MB-231 = tested on: MDA-MB-231
MDA-N = tested on: MDA-N
OVCAR-3 = tested on: OVCAR-3
OVCAR-5 = tested on: OVCAR-5
OVCAR-8 = tested on: OVCAR-8
PC-3 = tested on: PC-3
SK-MEL-2 = tested on: SK-MEL-2
SK-MEL-5 = tested on: SK-MEL-5
SK-OV-3 = tested on: SK-OV-3
SW-620 = tested on: SW-620
U-251 = tested on: U-251
UO-31 = tested on: UO-31
SNB-75 = tested on: SNB-75
T47D = tested on: T47D

Structure (SMILES)	GI50 (A498)	GI50 (CCRF-CEM)	GI50 (HL-60)	GI50 (HOP-62)	GI50 (Hs-578T)	GI50 (IGROV-1)	GI50 (MDA-MB-231)	GI50 (MDA-N)	GI50 (OVCAR-3)	GI50 (OVCAR-5)	GI50 (OVCAR-8)	GI50 (PC-3)	GI50 (SK-MEL-2)	GI50 (SK-MEL-5)	GI50 (SK-OV-3)	GI50 (SW-620)	GI50 (U-251)	GI50 (UO-31)	GI50 (SNB-75)	GI50 (T47D)
Clc1ccc(CCN[C@H]2CCCC[C@H]2N2CCCC2)cc1Cl	15.8 µM (inactive)	30.7 µM (inactive)	20.1 µM (inactive)	20 µM (inactive)	39.6 µM (inactive)	16.8 µM (inactive)	25.6 µM (inactive)	16.2 µM (inactive)	19.6 µM (inactive)	20.6 µM (inactive)	26.3 µM (inactive)	27.9 µM (inactive)	20.8 µM (inactive)	14.6 µM (inactive)	22.8 µM (inactive)	34 µM (inactive)	43.7 µM (inactive)	13.6 µM (inactive)	–	–
CC(C)C1=C(Cc2ccccc2)C(=O)O/C1=C\c1cc(Cl)c(O)c(Cl)c1	23.7 µM (inactive)	16 µM (inactive)	16.3 µM (inactive)	20.2 µM (inactive)	21.8 µM (inactive)	19.4 µM (inactive)	16.9 µM (inactive)	18.3 µM (inactive)	14.2 µM (inactive)	21.7 µM (inactive)	20.5 µM (inactive)	16.9 µM (inactive)	–	18.7 µM (inactive)	19.2 µM (inactive)	23.1 µM (inactive)	17.7 µM (inactive)	14.1 µM (inactive)	20.1 µM (inactive)	–
[N-]=[N+]=NI1OC(=O)c2ccccc21	> 100 µM (inactive)	37.9 µM (inactive)	40.5 µM (inactive)	> 100 µM (inactive)	> 100 µM (inactive)	> 100 µM (inactive)	> 100 µM (inactive)	–	> 100 µM (inactive)	66.5 µM (inactive)	> 100 µM (inactive)	> 100 µM (inactive)	> 100 µM (inactive)	–	> 100 µM (inactive)	65.3 µM (inactive)	92.9 µM (inactive)	> 100 µM (inactive)	> 100 µM (inactive)	> 100 µM (inactive)
COC1(OC)CC(CO)(CNc2nc(N)nc(Cl)c2C=O)C1	> 100 µM (inactive)	27.8 µM (inactive)	13.6 µM (inactive)	42.5 µM (inactive)	39.8 µM (inactive)	20.7 µM (inactive)	20.8 µM (inactive)	–	39.9 µM (inactive)	> 100 µM (inactive)	43 µM (inactive)	24 µM (inactive)	–	> 100 µM (inactive)	–	53.2 µM (inactive)	34.6 µM (inactive)	60.1 µM (inactive)	90.4 µM (inactive)	–
NS(=O)(=O)c1cc(S(N)(=O)=O)c(NC(=O)N(c2ccccc2)c2ccccc2)c(Cl)c1Cl	–	1.98 µM (inactive)	24.8 µM (inactive)	–	17.2 µM (inactive)	8.13 µM (inactive)	33 µM (inactive)	24.7 µM (inactive)	18.5 µM (inactive)	42.1 µM (inactive)	13.2 µM (inactive)	24 µM (inactive)	22.6 µM (inactive)	14.1 µM (inactive)	24 µM (inactive)	29.9 µM (inactive)	24.3 µM (inactive)	20.2 µM (inactive)	–	–
CCCCCCCCC#CCCCCCCC(F)C(=O)O (stereo unspecified)	> 100 µM (inactive)	> 100 µM (inactive)	25 µM (inactive)	> 100 µM (inactive)	> 100 µM (inactive)	> 100 µM (inactive)	–	–	> 100 µM (inactive)	> 100 µM (inactive)	> 100 µM (inactive)	> 100 µM (inactive)	> 100 µM (inactive)	> 100 µM (inactive)	> 100 µM (inactive)	> 100 µM (inactive)	> 100 µM (inactive)	> 100 µM (inactive)	> 100 µM (inactive)	> 100 µM (inactive)
CCOC(=O)[C@H](Cc1ccc(O)cc1)/N=C1/[C@H]2CCC[C@]1(O)[C@@](C)([N+](=O)[O-])C2	> 100 µM (inactive)	> 100 µM (inactive)	> 100 µM (inactive)	–	> 100 µM (inactive)	> 100 µM (inactive)	–	> 100 µM (inactive)	> 100 µM (inactive)	> 100 µM (inactive)	> 100 µM (inactive)	–	–	> 100 µM (inactive)	> 100 µM (inactive)	> 100 µM (inactive)	> 100 µM (inactive)	> 100 µM (inactive)	–	–
C=C(CCC=C(C)C)C1CC=C(C)CC1 (stereo unspecified)	> 100 µM (inactive)	–	–	16.3 µM (inactive)	20.9 µM (inactive)	13.6 µM (inactive)	30.6 µM (inactive)	18.5 µM (inactive)	29.5 µM (inactive)	> 100 µM (inactive)	36 µM (inactive)	–	17.7 µM (inactive)	16.6 µM (inactive)	> 100 µM (inactive)	22.9 µM (inactive)	18 µM (inactive)	16.4 µM (inactive)	–	28.1 µM (inactive)
O=C1c2ccsc2-c2cccc3cccc1c23.O=C1c2sccc2-c2cccc3cccc1c23	–	0.692 µM (active)	11.2 µM (inactive)	2.67 µM (inactive)	0.366 µM (active)	6.59 µM (inactive)	4.35 µM (inactive)	–	10.5 µM (inactive)	1.71 µM (inactive)	4.94 µM (inactive)	4.05 µM (inactive)	14.8 µM (inactive)	–	18.5 µM (inactive)	3.27 µM (inactive)	4.62 µM (inactive)	4.67 µM (inactive)	3.27 µM (inactive)	0.318 µM (active)
Cc1ccsc1/C=N/Nc1cc(C)c2cccc(C)c2n1	> 100 µM (inactive)	–	3.78 µM (inactive)	> 100 µM (inactive)	> 100 µM (inactive)	1.6 µM (inactive)	–	> 100 µM (inactive)	> 100 µM (inactive)	> 100 µM (inactive)	> 100 µM (inactive)	4.89 µM (inactive)	> 100 µM (inactive)	–	84.5 µM (inactive)	> 100 µM (inactive)	> 100 µM (inactive)	–	> 100 µM (inactive)	> 100 µM (inactive)
ClCCN(CCCl)c1ccc(CNCCCNCc2ccc(N(CCCl)CCCl)cc2)cc1	7.24 µM (inactive)	2.78 µM (inactive)	1.03 µM (active)	2.54 µM (inactive)	3.13 µM (inactive)	1.92 µM (inactive)	2.7 µM (inactive)	–	2.69 µM (inactive)	3.97 µM (inactive)	2.38 µM (inactive)	5.92 µM (inactive)	2.17 µM (inactive)	1.95 µM (inactive)	2.61 µM (inactive)	3.03 µM (inactive)	1.33 µM (inactive)	2.06 µM (inactive)	–	2.04 µM (inactive)
O=C(CCN1CCCC1)c1ccc(Oc2ccc(F)cc2)cc1	–	26.5 µM (inactive)	16 µM (inactive)	> 100 µM (inactive)	30.1 µM (inactive)	33 µM (inactive)	> 100 µM (inactive)	58.3 µM (inactive)	30.9 µM (inactive)	> 100 µM (inactive)	> 100 µM (inactive)	38.5 µM (inactive)	> 100 µM (inactive)	44.8 µM (inactive)	> 100 µM (inactive)	78.7 µM (inactive)	> 100 µM (inactive)	50.9 µM (inactive)	47.8 µM (inactive)	–
O=c1ccc2c(Cl)sc(Cl)c2[nH]1	–	> 100 µM (inactive)	–	> 100 µM (inactive)	35.2 µM (inactive)	> 100 µM (inactive)	> 100 µM (inactive)	> 100 µM (inactive)	> 100 µM (inactive)	> 100 µM (inactive)	> 100 µM (inactive)	> 100 µM (inactive)	> 100 µM (inactive)	–	> 100 µM (inactive)	> 100 µM (inactive)	> 100 µM (inactive)	> 100 µM (inactive)	> 100 µM (inactive)	> 100 µM (inactive)
COc1ccccc1NCc1cccc2c(=O)c3ccc(Cl)cc3oc12	> 100 µM (inactive)	48 µM (inactive)	22.9 µM (inactive)	> 100 µM (inactive)	–	56 µM (inactive)	> 100 µM (inactive)	93.8 µM (inactive)	35.8 µM (inactive)	> 100 µM (inactive)	> 100 µM (inactive)	58.7 µM (inactive)	49.1 µM (inactive)	> 100 µM (inactive)	> 100 µM (inactive)	76.9 µM (inactive)	33.5 µM (inactive)	95.9 µM (inactive)	28 µM (inactive)	> 100 µM (inactive)
c1c[nH]c(-c2ccc(-c3ccc[nH]3)c3nsnc23)c1	> 76.6 µM (inactive)	15.4 µM (inactive)	73.8 µM (inactive)	28.5 µM (inactive)	35.9 µM (inactive)	20.3 µM (inactive)	–	> 70.1 µM (inactive)	11.3 µM (inactive)	1.14 µM (inactive)	> 43.7 µM (inactive)	> 41.1 µM (inactive)	44.3 µM (inactive)	> 42.9 µM (inactive)	> 68.1 µM (inactive)	> 52.4 µM (inactive)	42.1 µM (inactive)	> 48.1 µM (inactive)	2.65 µM (inactive)	0.0336 µM (active)
CC1=C(/C=C/C(C)=C/C=C/C(C)=C/CO)C(C)(C)CCC1 [RETINOL]	18.3 µM (inactive)	22.3 µM (inactive)	23.4 µM (inactive)	22.1 µM (inactive)	–	29.2 µM (inactive)	29 µM (inactive)	36.5 µM (inactive)	14.3 µM (inactive)	24.9 µM (inactive)	–	38.9 µM (inactive)	20.7 µM (inactive)	17.1 µM (inactive)	35.2 µM (inactive)	19.4 µM (inactive)	21.2 µM (inactive)	17.7 µM (inactive)	0.0279 µM (active)	14.5 µM (inactive)
